In the NIST ThermoML archive (doi:10.1016/j.jct.2013.02.001):
Several values for one entry are separate records, joined by “and”; a condition that tells them apart may be missing. Identical values can stand only once.

Assay: molar heat capacity at constant pressure
Settings: 101.33 kPa, Quantum Design PPMS relaxation calorimeter

O=P([O-])([O-])OP(=O)([O-])[O-].[Fe+2].[Fe+2] [iron(II) pyrophosphate]
molar heat capacity at constant pressure
Settings	Crystal 1	Crystal 2
1 K	–	0.08666 J/K/mol
1.913 K	–	0.1778 J/K/mol
2 K	–	0.1915 J/K/mol
2.064 K	–	0.1986 J/K/mol
2.26 K	–	0.2225 J/K/mol
2.531 K	–	0.2638 J/K/mol
2.801 K	–	0.3059 J/K/mol
3 K	–	0.3363 J/K/mol
3.099 K	–	0.357 J/K/mol
3.44 K	–	0.423 J/K/mol
3.822 K	–	0.5078 J/K/mol
4 K	–	0.5546 J/K/mol
4.26 K	–	0.6259 J/K/mol
4.75 K	–	0.7875 J/K/mol
5 K	–	0.8911 J/K/mol
5.271 K	–	1.009 J/K/mol
5.851 K	–	1.309 J/K/mol
6 K	–	1.402 J/K/mol
6.516 K	–	1.743 J/K/mol
7 K	–	2.14 J/K/mol
7.28 K	–	2.343 J/K/mol
8 K	–	3.105 J/K/mol
8.038 K	–	3.122 J/K/mol
8.944 K	–	4.246 J/K/mol
9 K	–	4.353 J/K/mol
9.847 K	–	5.612 J/K/mol
10 K	–	5.87 J/K/mol
10.08 K	–	5.991 J/K/mol
10.35 K	–	6.444 J/K/mol
10.86 K	–	7.341 J/K/mol
11 K	–	7.59 J/K/mol
11.2 K	–	7.958 J/K/mol
11.38 K	–	8.272 J/K/mol
11.88 K	–	9.198 J/K/mol
12 K	–	9.403 J/K/mol
12.4 K	–	10.13 J/K/mol
12.41 K	–	10.27 J/K/mol
12.91 K	–	11.04 J/K/mol
13 K	–	11.22 J/K/mol
13.42 K	–	11.97 J/K/mol
13.81 K	–	12.78 J/K/mol
13.93 K	–	12.96 J/K/mol
14 K	–	13.1 J/K/mol
14.15 K	–	13.36 J/K/mol
14.44 K	–	13.97 J/K/mol
14.67 K	–	14.41 J/K/mol
14.95 K	–	15.04 J/K/mol
15 K	–	15.16 J/K/mol
15.19 K	–	15.57 J/K/mol
15.31 K	–	15.94 J/K/mol
15.46 K	–	16.16 J/K/mol
15.7 K	–	16.68 J/K/mol
15.96 K	–	17.32 J/K/mol
16 K	–	17.48 J/K/mol
16.21 K	–	17.94 J/K/mol
16.46 K	–	18.55 J/K/mol
16.73 K	–	19.27 J/K/mol
16.97 K	–	19.88 J/K/mol
17 K	–	20.05 J/K/mol
17.03 K	–	20.07 J/K/mol
17.21 K	–	20.48 J/K/mol
17.47 K	–	21.15 J/K/mol
17.72 K	–	21.75 J/K/mol
17.97 K	–	22.35 J/K/mol
18 K	–	22.46 J/K/mol
18.22 K	–	22.9 J/K/mol
18.45 K	–	23.46 J/K/mol
18.7 K	–	23.76 J/K/mol
18.86 K	–	23.9 J/K/mol
18.96 K	23.94 J/K/mol and 23.94 J/K/mol	23.94 J/K/mol
19 K	23.61 J/K/mol	–
19.22 K	23.87 J/K/mol	–
19.47 K	23.67 J/K/mol	–
19.72 K	23.25 J/K/mol	–
19.96 K	22.81 J/K/mol	–
20 K	22.76 J/K/mol	–
20.21 K	22.3 J/K/mol	–
20.45 K	21.81 J/K/mol	–
20.7 K	21.41 J/K/mol	–
20.95 K	21.05 J/K/mol	–
21.21 K	20.68 J/K/mol	–
21.46 K	20.31 J/K/mol	–
21.71 K	20.15 J/K/mol	–
21.96 K	20.02 J/K/mol	–
22.21 K	19.89 J/K/mol	–
22.47 K	19.76 J/K/mol	–
22.74 K	19.73 J/K/mol	–
22.99 K	19.67 J/K/mol	–
23.23 K	19.65 J/K/mol	–
23.29 K	19.66 J/K/mol	–
23.48 K	19.65 J/K/mol	–
23.52 K	19.74 J/K/mol	–
23.7 K	19.62 J/K/mol	–
23.73 K	19.62 J/K/mol	–
23.9 K	19.67 J/K/mol	–
23.98 K	19.66 J/K/mol	–
24.1 K	19.7 J/K/mol	–
24.3 K	19.72 J/K/mol	–
24.47 K	19.77 J/K/mol	–
24.66 K	19.78 J/K/mol	–
24.86 K	19.85 J/K/mol	–
25 K	19.89 J/K/mol and 19.88 J/K/mol	–
25.05 K	19.91 J/K/mol	–
25.25 K	19.94 J/K/mol	–
25.46 K	19.99 J/K/mol	–
25.48 K	20.02 J/K/mol	–
25.65 K	20.06 J/K/mol	–
25.84 K	20.15 J/K/mol	–
25.86 K	20.19 J/K/mol	–
25.98 K	20.18 J/K/mol	–
26.04 K	20.21 J/K/mol	–
26.23 K	20.27 J/K/mol	–
26.42 K	20.35 J/K/mol	–
26.51 K	20.4 J/K/mol	–
26.62 K	20.45 J/K/mol	–
26.81 K	20.52 J/K/mol	–
26.98 K	20.63 J/K/mol	–
27 K	20.61 J/K/mol	–
27.2 K	20.71 J/K/mol	–
27.39 K	20.81 J/K/mol	–
27.53 K	20.88 J/K/mol	–
27.58 K	20.9 J/K/mol	–
27.78 K	20.99 J/K/mol	–
27.98 K	20.92 J/K/mol	–
27.99 K	20.94 J/K/mol	–
28.18 K	20.76 J/K/mol	–
28.34 K	20.71 J/K/mol	–
28.53 K	20.72 J/K/mol	–
28.55 K	20.74 J/K/mol	–
28.68 K	20.78 J/K/mol	–
28.75 K	20.76 J/K/mol	–
28.95 K	20.82 J/K/mol	–
29.05 K	20.85 J/K/mol	–
29.12 K	20.86 J/K/mol	–
29.33 K	20.93 J/K/mol	–
29.51 K	21.05 J/K/mol	–
29.53 K	20.99 J/K/mol	–
29.72 K	21.07 J/K/mol	–
29.91 K	21.11 J/K/mol	–
30 K	21.15 J/K/mol	–
30.06 K	21.18 J/K/mol	–
30.11 K	21.2 J/K/mol	–
30.3 K	21.27 J/K/mol	–
30.5 K	21.35 J/K/mol	–
30.52 K	21.34 J/K/mol	–
30.7 K	21.43 J/K/mol	–
30.89 K	21.5 J/K/mol	–
31.05 K	21.58 J/K/mol	–
31.54 K	21.77 J/K/mol	–
31.86 K	21.93 J/K/mol	–
32.06 K	22.02 J/K/mol	–
32.55 K	22.21 J/K/mol	–
33.06 K	22.48 J/K/mol	–
33.6 K	22.75 J/K/mol	–
34.07 K	22.98 J/K/mol	–
35 K	23.58 J/K/mol	–
35.39 K	23.86 J/K/mol	–
39.3 K	26.23 J/K/mol	–
40 K	26.79 J/K/mol	–
43.62 K	29.29 J/K/mol	–
45 K	30.48 J/K/mol	–
48.44 K	33.24 J/K/mol	–
50 K	34.53 J/K/mol	–
53.8 K	37.9 J/K/mol	–
55 K	38.88 J/K/mol	–
59.7 K	43.41 J/K/mol	–
60 K	43.45 J/K/mol	–
65 K	48.17 J/K/mol	–
66.33 K	49.51 J/K/mol	–
70 K	52.96 J/K/mol	–
73.67 K	56.22 J/K/mol	–
75 K	57.77 J/K/mol	–
80 K	62.51 J/K/mol	–
81.81 K	63.97 J/K/mol	–
85 K	67.27 J/K/mol	–
90 K	72.12 J/K/mol	–
90.85 K	72.47 J/K/mol	–
95 K	76.73 J/K/mol	–
100 K	81.13 J/K/mol	–
100.84 K	81.1 J/K/mol	–
110 K	89.39 J/K/mol	–
110.99 K	89.55 J/K/mol	–
120 K	97.12 J/K/mol	–
120.88 K	97.62 J/K/mol	–
130 K	104.5 J/K/mol	–
131.05 K	105.42 J/K/mol	–
140 K	111.61 J/K/mol	–
141.03 K	112.91 J/K/mol	–
150 K	118.53 J/K/mol	–
151.17 K	119.77 J/K/mol	–
160 K	125.27 J/K/mol	–
161.25 K	126.73 J/K/mol	–
170 K	131.84 J/K/mol	–
171.3 K	133.11 J/K/mol	–
180 K	138.23 J/K/mol	–
181.45 K	139.41 J/K/mol	–
190 K	144.41 J/K/mol	–
191.55 K	145.2 J/K/mol	–
200 K	150.38 J/K/mol	–
201.65 K	151.21 J/K/mol	–
210 K	156.13 J/K/mol	–
211.78 K	157.08 J/K/mol	–
220 K	161.63 J/K/mol	–
221.88 K	161.91 J/K/mol	–
230 K	166.89 J/K/mol	–
232.02 K	167.23 J/K/mol	–
240 K	171.91 J/K/mol	–
242.09 K	171.91 J/K/mol	–
250 K	176.68 J/K/mol	–
252.14 K	177.54 J/K/mol	–
260 K	181.21 J/K/mol	–
262.21 K	182.5 J/K/mol	–
270 K	185.5 J/K/mol	–
272.36 K	187.75 J/K/mol	–
273.15 K	186.8 J/K/mol	–
280 K	189.56 J/K/mol	–
282.44 K	193.26 J/K/mol	–
290 K	193.4 J/K/mol	–
292.45 K	194.84 J/K/mol	–
298.15 K	196.38 J/K/mol	–
300 K	197.04 J/K/mol	–
302.52 K	200.88 J/K/mol	–
